Data from US12534439B2, “Xanthohumol derivatives and methods for making and using” (Oregon State University, priority 2021, dated 2026).

How the values were obtained:
[1] = system: HFD-fed C57BL/6J mice; experiment: Metabolic cages: indirect calorimetry, energy expenditure, motor activity; type: in vivo; conditions: for All movements (direct locomotion and fine movements) versus control: three dark and two light cycles; for Mean respiratory exchange ratio (RER) versus control: week 6; for Increase of mean energy expenditure (EE): week 6, normalized on body weight, dark and light cycles
Procedure: Measure of Metabolic Activity. Metabolic determinations were performed at week 6, with four mice from each treatment group housed in Promethion metabolic cages (Sable Systems, Las Vegas, NV, USA). The indirect calorimetry system consists of metabolic cages identical to regular cages with bedding, each equipped with food hoppers connected to load cells for food intake monitoring. Prior to data collection, all mice were acclimated to the cages for 8 hours. A standard 12 hours light/dark cycle was maintained throughout the calorimetry studies, and data was collected over three dark cycles and two light cycles. Metabolic measurements such as EE and respiratory exchange […] (calculated from the ratio of CO2 volume produced and O2 volume consumed) were measured. Motor activity and food intake were also recorded. JC-1 Mitochondrial Membrane Potential Assay. C2Cl2 cells were seeded in 96-well plates at 1×10^4 cells/mL. After 24 hours, the culture medium was replaced with fresh medium containing carbonyl cyanide p-(trifluoromethoxy) phenylhydrazone (FCCP) from Sigma-Aldrich (St Louis, MO, USA), XP, XN, or DMSO vehicle. Cells were incubated in the presence of the treatments for 1 h and 5,5′,6,6′-tetrachloro-1,1′,3,3′-tetraethylbenzimidazolylcarbocyanine iodide (JC-1) dye was added to each well following the manufacturer's protocol (Cayman Chemical, Ann Arbor, MI, USA). JC-1 aggregates were detected with excitation and emission wavelengths of 540 and 570 nm. JC-1 monomers were detected with excitation and emission wavelengths of 485 and 535 nm on a BioTek Synergy HT plate reader.

[2] = system: HFD-fed C57BL/6J mice; experiment: AST and ALT enzymatic activities in liver homogenates; type: in vivo; conditions: for ALT / AST: 11 weeks, mean ± SEM
Procedure: Measure of Metabolic Parameters and Liver Enzymes. ALT and AST enzymatic activities and liver samples (n=4-8 per group) were homogenized in 10 mL of 100 mM
(§1) Tris (pH=7.8) per gram of tissue. The homogenates were centrifuged at 10 000 g for 15 minutes at 4° C., and the supernatants were tested for ALT and AST activity using colorimetric assay kits purchased from Cayman Chemical (Ann Arbor, MI, USA). Triglycerides and total cholesterol were analyzed with commercially available kits (Cayman Chemical, Ann Arbor, MI, USA). Plasma glucose at week 11 was measured with a colorimetric assay, and plasma insulin, MCP-1, IL-6, and PCSK9 were analyzed by ELISA kits purchased from Abcam (Cambridge, UK).

[3] = system: HFD-fed C57BL/6J mice; experiment: HFD feeding study: body weight, glucose tolerance test, plasma metabolic parameters; type: in vivo; conditions: for Final body weight: 11 weeks of HFD ± test compound; for Weight gain over the feeding period versus control HFD-fed mice: XP 30, XN 60 mg/kg body weight/day in HFD; for Glucose tolerance test (GTT) versus control: after 4 weeks of feeding, 6 hours fasting, 1.5 g/kg D-glucose i.p.; for Initial body weight: male mice, HFD ± test compound; for IL-6 / Insulin / MCP1 / PCSK9: plasma
Procedure: Animal Studies. All animal experiments were performed in accordance with institutional and National Health and Medical Research Council guidelines. The experimental protocol was approved by the Institutional Animal Care and Use Committee at Oregon State University and the studies were carried out in accordance with the approved protocol. Nine-week-old wildtype male C57BL/6J mice were obtained from Jackson Laboratory (Bar Harbor, ME, USA). Mice were single-housed in ventilated cages under a 12-12 h light-dark cycle and fed a HFD (Dyets Inc., Bethlehem, PA, USA) containing 60, 20, and 20% total calories from fat, carbohydrate, and protein, respectively. XN (99% purity, Hopsteiner Inc., New York, NY, USA) and XP (99% purity) were mixed into the diet at a concentration of 0.066% for XN and 0.033% for XP to reach respective doses of 60 mg/kg body weight/day and 30 mg/kg body weight/day. Studies included eight HFD-fed mice, eight XP-treated mice, and four XN-treated mice; food intake and body weights were recorded weekly. At week 4, glucose tolerance was tested after 6 hours fasting. Following intraperitoneal bolus injection of 1.5 g/kg of D-glucose, blood glucose levels were measured at 0, 15, 30, 60, and 120 minures using a One Touch UltraMini glucometer (LifeScan Inc., Milpitas, CA, USA). At the end of 11 weeks of feeding, mice were euthanized, and blood, liver, BAT, epididymal WAT, and cortex samples were collected for analyses.
as §1

[4] = system: C2Cl2 cells; experiment: JC-1 mitochondrial membrane potential assay; type: cell-based, murine; conditions: compared with FCCP
Procedure: Mitochondrial respiration is coupled to ATP synthesis through an electrochemical proton gradient. Proton leak across the inner membrane results in depolarization of the mitochondrial transmembrane without deleteriously lowering the ATP synthesis. Proton leak can be mediated by UCPs and leads to the dissipation of the energy derived from substrate oxidation as heat. Considering the XP and XN effect on EE, the thermogenic activity was evaluated by assessing changes in UCP1 protein expression in the skeletal muscle, BAT, and WAT of HFD-fed mice. Unexpectedly, XP had no effect in UCP1 in the skeletal muscle, BAT, or WAT of HFD-fed mice (FIG. 18A). […] Therefore, the XP intrinsic protonophore properties were investigated by measured variations of mitochondrial membrane potential (ΔψM) in C2Cl2 cells stained with JC-1 dye. […]
Measure of Metabolic Activity. […] Metabolic measurements such as EE and respiratory exchange […] (calculated from the ratio of CO2 volume produced and O2 volume consumed) were measured. Motor activity and food intake were also recorded. […] JC-1 aggregates were detected with excitation and emission wavelengths of 540 and 570 nm. JC-1 monomers were detected with excitation and emission wavelengths of 485 and 535 nm on a BioTek Synergy HT plate reader.

SMILES	All movements (direct locomotion and fine movements) versus control [1]	Mean respiratory exchange ratio (RER) versus control [1]	Increase of mean energy expenditure (EE) ([1]; versus control)	AST and ALT test results versus control [2]	ALT [2]	AST [2]	Plasma concentrations of PCSK9 versus control ([3]; 11 weeks)	Final body weight ([3]; mean ± SEM)	Fasting glucose ([3]; 11 weeks, mean ± SEM)	Plasma cholesterol ([3]; 11 weeks, mean ± SEM)	Weight gain over the feeding period versus control HFD-fed mice [3]	Glucose tolerance test (GTT) versus control [3]	Initial body weight ([3]; mean ± SEM)	IL-6 ([3]; 11 weeks, mean ± SEM)	Insulin ([3]; 11 weeks, mean ± SEM)	MCP1 ([3]; 11 weeks, mean ± SEM)	PCSK9 ([3]; 11 weeks, mean ± SEM)	Effect on JC-1 aggregates/monomers ratio [4]	further results
COc1cc(O)c(CC=C(C)C)c(O)c1C(=O)/C=C/c1ccc(O)cc1 [XN, xanthohumol]	increased	increased	4-8%	did not change substantially	0.22 ± 0.06 U/mL	0.16 ± 0.03 U/mL	not affected	44.25 ± 1.97 g	142.67 ± 6.29 mg/dL	170.88 ± 6.76 mg/dL	no change in weight	no effect on glucose clearance	26.37 ± 0.22 g	5.03 ± 3.3 pg/mL	71.17 ± 34.38 μU/mL	57.34 ± 15.74 pg/mL	215 ± 35.12 ng/mL	dose-dependent and milder than that of protonophore FCCP	Locomotor movement increased versus control ([1]; p=0.06): not; Plasma TGs versus control ([3]; 11 weeks): increase; HOMA-IR ([3]; 11 weeks, mean ± SEM): 26.76 ± 13.47
COc1cc(O)c(CC=C(C)C)c(O)c1-c1cc(-c2ccc(O)cc2)n(C)n1 [XP, 4-(5-(4-hydroxyphenyl)-1-methyl-1H-pyrazol-3-yl)-5-methoxy-2-(3-methylbut-2-en-1-yl)benzene-1,3-diol]	increased	increased	up to 27%	did not change substantially	0.38 ± 0.07 U/mL	0.30 ± 0.06 U/mL	not affected	37.87 ± 1.72 g	128.98 ± 7.18 mg/dL	160.47 ± 4.73 mg/dL	gained significantly less weight	improved glucose tolerance	23.66 ± 0.70 g	5.78 ± 2.04 pg/mL	34.36 ± 3.73 μU/mL	45.00 ± 4.68 pg/mL	217.166 ± 26.88 ng/mL	dose-dependent and milder than that of protonophore FCCP	Percent ambulatory time versus control ([1]; mouse, in vivo): increased; Increase of locomotor movement (direct locomotion) ([1]; versus control): 75-135%; Increase of mean energy expenditure (EE) ([1]; versus control, listed as 4-(5-(4-hydroxyphenyl)-1-methyl-1h-pyrazol-3-yl)-5-methoxy-2-(3-methylbut-2-en-1)): 20-27%; Decrease in liver enzymes (AST, ALT) ([2]; versus control, not significant): 30%; IL-6 plasma level versus control ([3]; 11 weeks): not significantly different; MCP-1/CCL2 plasma levels versus control ([3]; 11 weeks): not decreased; Triglycerides (TG) and total cholesterol concentrations in plasma versus control ([3]; 11 weeks): no changes; Plasma TG ([3]; 11 weeks, mean ± SEM): 81.81 ± 4.33 mg/dL; Decrease of HOMA-IR (insulin resistance score) ([3]; after 11 weeks of feeding, versus control): 77.9%; Fasting glucose a ([3]; measured at 4 weeks, mean ± SEM): 143.62 ± 7.54 mg/dL
